{"source": "PubChem BioAssay AID588844", "about": "(Broad Institute, 2011)", "key": {"[1]": {"test": "HMLE_shECad cancer stem cell-like viability inhibition, dose response, CellTiter-Glo luminescence, dry powder, set 2 (AID 588844)", "details": "HMLE_shECad viability, CellTiter-Glo luminescence, 72 h; at 32 µM (top of the series)"}, "[2]": {"system": "HMLE_shECad viability, CellTiter-Glo luminescence, 72 h", "test": "HMLE_shECad cancer stem cell-like viability inhibition, dose response, CellTiter-Glo luminescence, dry powder, set 2 (AID 588844)"}}, "note": "Activity calls are given as the source filed them. The rule behind the calls is not given here.", "data": [{"smiles": "Cc1csc(NC(=O)c2ccc(COc3cccc(F)c3)o2)n1", "values": [{"measurement": "remaining viability fraction", "setting": "[1]", "result": "65.6% (inactive)"}]}, {"smiles": "O=C(/C=C/c1ccc(-c2ccccc2)cc1)NC1=NCCS1", "values": [{"measurement": "AC50", "setting": "[2]", "result": 0.625, "unit": "µM"}]}, {"smiles": "Cc1csc(NC(=O)c2ccc(COc3ccccc3F)o2)n1", "values": [{"measurement": "AC50", "setting": "[2]", "result": 2.43, "unit": "µM"}]}, {"smiles": "O=C(NC1CCCC1)c1ccc(COc2ccccc2)o1", "values": [{"measurement": "AC50", "setting": "[2]", "result": 23.5, "unit": "µM"}]}, {"smiles": "Cc1ccc(/C=C/C(=O)NC2=NCCS2)cc1", "values": [{"measurement": "remaining viability fraction", "setting": "[1]", "result": "75.7% (inactive)"}]}, {"smiles": "Cc1csc(NC(=O)c2ccc(COc3ccccc3)o2)n1", "values": [{"measurement": "AC50", "setting": "[2]", "result": 0.07, "unit": "µM"}]}, {"smiles": "COc1ccc(/C=C/C(=O)NC2=NCCS2)c(OC)c1", "values": [{"measurement": "remaining viability fraction", "setting": "[1]", "result": "70.8% (inactive)"}]}, {"smiles": "CC(C)c1ccc(/C=C/C(=O)NC2=NCCS2)cc1", "values": [{"measurement": "AC50", "setting": "[2]", "result": 0.3, "unit": "µM"}]}, {"smiles": "Cc1csc(NC(=O)c2ccc(COc3cccc(Cl)c3)o2)n1", "values": [{"measurement": "AC50", "setting": "[2]", "result": 3, "unit": "µM"}]}]}
